Source: patent US7342014B2, “Diamine derivatives” (Daiichi Pharmaceutical Co., Ltd., priority 2001, dated 2008)
Counter-ions that a name gives are not always drawn.

| melting point | Structure (SMILES) |
| --- | --- |
| 230 to 235 °C (dec.) | CC(C)N1CCc2nc(C(=O)N[C@@H]3CN(S(C)(=O)=O)C[C@H]3NC(=O)c3cc4cc(Cl)ccc4[nH]3)sc2C1 (as salt: hydrochloride) |
| 248 to 250 °C (dec.) | CN1CCc2nc(C(=O)N[C@@H]3CNC[C@H]3NC(=O)c3cc4cc(Cl)ccc4[nH]3)sc2C1 (as salt: hydrochloride) |
| 254 to 258 °C (dec.) | CC(=O)N1C[C@@H](NC(=O)c2cc3cc(Cl)ccc3[nH]2)[C@H](NC(=O)c2nc3c(s2)CN(C(C)C)CC3)C1 (as salt: hydrochloride) [Example 114, N-((3R,4R)-1-Acetyl-4-{[(5-chloroindol-2-yl)carbonyl]-amino}pyrrolidin-3-yl)-5-isopropyl-4,5,6,7-tetrahydro-thiazolo[5,4-c]pyridine-2-carboxamide hydrochloride] |
| 225 to 228 °C (dec.) | CCOC(=O)N1C[C@@H](NC(=O)c2cc3cc(Cl)ccc3[nH]2)[C@H](NC(=O)c2nc3c(s2)CN(C(C)C)CC3)C1 (as salt: hydrochloride) [Example 116, Ethyl (3R,4R)-3-{[(5-chloroindol-2-yl)carbonyl]amino}-4-{[(5-isopropyl-4,5,6,7-tetrahydrothiazolo[5,4-c]pyridin-2-yl)carbonyl]amino}pyrrolidine-1-carboxylate hydrochloride] |
| 207 to 220 °C (dec.) | COCC(=O)N1CC[C@H](NC(=O)c2cc3cc(Cl)ccc3[nH]2)[C@H](NC(=O)c2nc3c(s2)CN(C)CC3)C1 (as salt: hydrochloride) [Example 171, N-[(3R,4S)-4-{[(5-Chloroindol-2-yl)carbonyl]amino}-1-(2-methoxyacetyl)piperidin-3-yl]-5-methyl-4,5,6,7-tetrahydro-thiazolo[5,4-c]pyridine-2-carboxamide hydrochloride] |
| 213 to 230 °C | COCC(=O)N1CC[C@@H](NC(=O)c2cc3cc(Cl)ccc3[nH]2)[C@H](NC(=O)c2nc3c(s2)CN(C)CC3)C1 (as salt: hydrochloride) [Example 172, N-[(3R,4R)-4-{[(5-Chloroindol-2-yl)carbonyl]amino}-1-(2-methoxyacetyl)piperidin-3-yl]-5-methyl-4,5,6,7-tetrahydro-thiazolo[5,4-c]pyridine-2-carboxamide hydrochloride] |
| 202 °C (dec.) | CC(=O)N1CC[C@H](NC(=O)c2cc3cc(F)ccc3[nH]2)[C@H](NC(=O)c2nc3c(s2)CN(C)CC3)C1 (relative stereo) (as salt: hydrochloride) |
| 228 to 245 °C (dec.) | CN1CCc2nc(C(=O)N[C@@H]3CCN(S(C)(=O)=O)C[C@@H]3NC(=O)c3cc4cc(Cl)ccc4[nH]3)sc2C1 (relative stereo) (as salt: hydrochloride) |
| 224 to 226 °C (dec.) | COCCOC(=O)N1CC[C@H](NC(=O)c2cc3cc(Cl)ccc3[nH]2)[C@H](NC(=O)c2nc3c(s2)CN(C)CC3)C1 (relative stereo) (as salt: hydrochloride) |
| 213 to 225 °C (dec.) | CCOC(=O)N1CC[C@@H](NC(=O)c2nc3c(s2)CN(C)CC3)[C@@H](NC(=O)c2cc3cc(Cl)ccc3[nH]2)C1 (relative stereo) (as salt: hydrochloride) |
| 266 to 272 °C (dec.) | CC(C)C(=O)N1CC[C@H](NC(=O)c2cc3cc(Cl)ccc3[nH]2)[C@H](NC(=O)c2nc3c(s2)CN(C)CC3)C1 (relative stereo) (as salt: hydrochloride) |
| 250 to 255 °C (dec.) | CN1CCc2nc(C(=O)N[C@@H]3CN(C(=O)C(C)(C)C)CC[C@@H]3NC(=O)c3cc4cc(Cl)ccc4[nH]3)sc2C1 (relative stereo) (as salt: hydrochloride) |
| 271 to 275 °C (dec.) | CN1CCc2nc(C(=O)N[C@@H]3CN(C(=O)C4CCC4)CC[C@@H]3NC(=O)c3cc4cc(Cl)ccc4[nH]3)sc2C1 (relative stereo) (as salt: hydrochloride) |
| 254 to 260 °C (dec.) | CN1CCc2nc(C(=O)N[C@@H]3CN(C(=O)C4CCCC4)CC[C@@H]3NC(=O)c3cc4cc(Cl)ccc4[nH]3)sc2C1 (relative stereo) (as salt: hydrochloride) |
| 190 to 208 °C (dec.) | COCC(=O)N1CC[C@H](NC(=O)c2cc3cc(F)ccc3[nH]2)[C@H](NC(=O)c2nc3c(s2)CN(C)CC3)C1 (relative stereo) (as salt: hydrochloride) |
| 200 °C (dec.) | CN1CCc2nc(C(=O)N[C@@H]3CN(C(=O)C4CC(O)C4)CC[C@@H]3NC(=O)c3cc4cc(Cl)ccc4[nH]3)sc2C1 (relative stereo) (as salt: hydrochloride) |

| melting point | Structure (SMILES) |
| --- | --- |
| 191 °C (dec.) | COC1CC(C(=O)N2CC[C@H](NC(=O)c3cc4cc(Cl)ccc4[nH]3)[C@H](NC(=O)c3nc4c(s3)CN(C)CC4)C2)C1 (relative stereo) (as salt: hydrochloride) |
| 225 to 248 °C (dec.) | CN1CCc2nc(C(=O)N[C@@H]3CN(C(=O)C4CCOCC4)CC[C@@H]3NC(=O)c3cc4cc(Cl)ccc4[nH]3)sc2C1 (relative stereo) (as salt: hydrochloride) |
| 221 to 232 °C (dec.) | COCC(=O)N1CC[C@H](NC(=O)c2cc3cc(Cl)ccc3[nH]2)[C@H](NC(=O)c2nc3c(s2)CN(C(C)(C)CO)CC3)C1 (relative stereo) (as salt: hydrochloride) |
| 214 to 228 °C (dec.) | COCC(=O)N1CC[C@H](NC(=O)c2cc3cc(F)ccc3[nH]2)[C@H](NC(=O)c2nc3c(s2)CN(C(C)C)CC3)C1 (relative stereo) (as salt: hydrochloride) |
| 221 to 235 °C (dec.) | CCNC(=O)N1CC[C@H](NC(=O)c2cc3cc(Cl)ccc3[nH]2)[C@H](NC(=O)c2nc3c(s2)CN(C)CC3)C1 (relative stereo) (as salt: hydrochloride) |
| 238 to 242 °C (dec.) | COCCN1CC[C@H](NC(=O)c2cc3cc(Cl)ccc3[nH]2)[C@H](NC(=O)c2nc3c(s2)CN(C)CC3)C1 (relative stereo) (as salt: hydrochloride) |
| 240 to 258 °C (dec.) | CN1CCc2nc(C(=O)N[C@@H]3CNCC[C@@H]3NC(=O)c3cc4cc(Cl)ccc4[nH]3)sc2C1 (relative stereo) (as salt: hydrochloride) [Example 118, N-((3R*,4S*)-4-{[(5-Chloroindol-2-yl)carbonyl]amino}-piperidin-3-yl)-5-methyl-4,5,6,7-tetrahydrothiazolo[5,4-c]pyridine-2-carboxamide dihydrochloride] |
| 236 to 245 °C (dec.) | CN1CCc2nc(C(=O)N[C@@H]3CNCC[C@@H]3NC(=O)c3cc4cc(F)ccc4[nH]3)sc2C1 (relative stereo) (as salt: hydrochloride) [Example 122, N-((3R*,4S*)-4-{[(5-Fluoroindol-2-yl)carbonyl]amino}-piperidin-3-yl)-5-methyl-4,5,6,7-tetrahydrothiazolo[5,4-c]pyridine-2-carboxamide dihydrochloride] |
| 225 to 250 °C (dec.) | CC(=O)N1CC[C@@H](NC(=O)c2nc3c(s2)CN(C)CC3)[C@@H](NC(=O)c2cc3cc(Cl)ccc3[nH]2)C1 (relative stereo) (as salt: hydrochloride) [Example 124, N-((3R*,4S*)-1-Acetyl-3-{[(5-chloroindol-2-yl)carbonyl]-amino}piperidin-4-yl)-5-methyl-4,5,6,7-tetrahydro-thiazolo[5,4-c]pyridine-2-carboxamide hydrochloride] |
| 225 to 230 °C (dec.) | CN1CCc2nc(C(=O)N[C@@H]3CN(S(C)(=O)=O)CC[C@@H]3NC(=O)c3cc4cc(Cl)ccc4[nH]3)sc2C1 (relative stereo) (as salt: hydrochloride) [Example 126, N-[(3R*,4S*)-{[(5-Chloroindol-2-yl)carbonyl]amino}-1-(methylsulfonyl)piperidin-3-yl]-5-methyl-4,5,6,7-tetrahydrothiazolo[5,4-c]pyridine-2-carboxamide hydrochloride] |
| 216 to 250 °C (dec.) | CN1CCc2nc(C(=O)N[C@@H]3CN(S(C)(=O)=O)CC[C@@H]3NC(=O)c3cc4cc(F)ccc4[nH]3)sc2C1 (relative stereo) (as salt: hydrochloride) [Example 128] |
| 248 to 253 °C (dec.) | COC(=O)N1CC[C@H](NC(=O)c2cc3cc(Cl)ccc3[nH]2)[C@H](NC(=O)c2nc3c(s2)CN(C)CC3)C1 (relative stereo) (as salt: hydrochloride) [Example 129, Methyl (3R*,4S*)-4-{[(5-chloroindol-2-yl)carbonyl]amino}-3-{[(5-methyl-4,5,6,7-tetrahydrothiazolo[5,4-c]pyridin-2-yl)carbonyl]amino}piperidine-1-carboxylate hydrochloride] |
| 215 to 225 °C (dec.) | CCOC(=O)N1CC[C@H](NC(=O)c2cc3cc(Cl)ccc3[nH]2)[C@H](NC(=O)c2nc3c(s2)CN(C)CC3)C1 (relative stereo) (as salt: hydrochloride) [Example 130, Ethyl (3R*,4S*)-4-{[(5-chloroindol-2-yl)carbonyl]amino}-3-{[(5-methyl-4,5,6,7-tetrahydrothiazolo[5,4-c]pyridin-2-yl)carbonyl]amino}piperidine-1-carboxylate hydrochloride] |
| 214 to 228 °C (dec.) | CCC(=O)N1CC[C@H](NC(=O)c2cc3cc(Cl)ccc3[nH]2)[C@H](NC(=O)c2nc3c(s2)CN(C)CC3)C1 (relative stereo) (as salt: hydrochloride) [Example 133, N-((3R*,4S*)-4-{[(5-Chloroindol-2-yl)carbonyl]amino}-1-propionylpiperidin-3-yl)-5-methyl-4,5,6,7-tetrahydro-thiazolo[5,4-c]pyridine-2-carboxamide hydrochloride] |
| 260 to 265 °C (dec.) | CN1CCc2nc(C(=O)N[C@@H]3CN(C(=O)CC(C)(C)C)CC[C@@H]3NC(=O)c3cc4cc(Cl)ccc4[nH]3)sc2C1 (relative stereo) (as salt: hydrochloride) [Example 136, N-[(3R*,4S*)-4-{[(5-Chloroindol-2-yl)carbonyl]amino}-1-(3,3-dimethylbutanoyl)piperidin-3-yl]-5-methyl-4,5,6,7-tetrahydrothiazolo[5,4-c]pyridine-2-carboxamide hydrochloride] |
